In PMC10065799, “High-throughput profiling of sequence recognition by tyrosine kinases and SH2 domains using bacterial peptide display” (eLife, 2023):

Key:
Experiment in all cases: pTyr-Var library bacterial peptide display kinase screen (enrichment scores)
[1] = biological target: T1, c-Abl kinase domain (Mus musculus, UniProt P00520); assay type: biochemical;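 further: log2 fold change in enrichment of variant over reference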
T1 sequence (P00520 242-493 limits assumed): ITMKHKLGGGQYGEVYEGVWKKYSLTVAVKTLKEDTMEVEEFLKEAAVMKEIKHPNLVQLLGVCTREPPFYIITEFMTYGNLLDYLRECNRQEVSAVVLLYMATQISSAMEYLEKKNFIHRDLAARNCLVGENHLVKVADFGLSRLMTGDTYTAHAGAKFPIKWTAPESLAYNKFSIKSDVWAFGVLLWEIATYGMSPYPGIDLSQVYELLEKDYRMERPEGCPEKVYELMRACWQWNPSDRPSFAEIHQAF

[2] = biological target: c-Src kinase domain (Homo sapiens, UniProt P12931); assay type: biochemical; settings: sheet "Src";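 further: log2 fold change in enrichment of variant over reference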
[3] = test system: Fer kinase domain; assay type: biochemical, mouse; settings: sheet "Fer";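 further: log2 fold change in enrichment of variant over reference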
[4] = test system: EPHB2 kinase domain; assay type: biochemical, human; settings: sheet EPHB2;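 further: log2 fold change in enrichment of variant over reference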
[5] = test system: EPHB1 kinase domain; assay type: biochemical, human; settings: for Screen: sheet EPHB1, effect of the variant peptide relative to its reference peptide in the pTyr-Var library screen (enrichment scores); for Screen (variant relative to reference peptide, measured in the pTyr-Var library screen): sheet "EPHB1", variant seq vs reference seq, bacterial peptide display enrichment
[6] = fig5-data2, sheet "Abl", Screen for the variant/reference peptide pair, pTyr-Var library
[7] = variant peptide versus its reference peptide in the pTyr-Var library screen
[8] = value of the variant peptide against its reference peptide in the pTyr-Var library screen with Fer
[9] = sheet "Abl", effect of variant peptide relative to its reference peptide in pTyr-Var library screen (enrichment)
[10] = effect of the variant peptide relative to its reference peptide in the pTyr-Var library screen
[11] = effect of variant peptide relative to its reference peptide in the pTyr-Var library screen (enrichment scores)
[12] = variant peptide relative to its reference peptide, pTyr-Var library screen enrichment
[13] = effect of the variant relative to its reference peptide in the pTyr-Var library screen

AALLNYKAGRD [GRIN2A_Y737_V734L] gave a Screen [1, 6] of -0.3155.
Work on ACEVLYNIVFM [NCF2_Y125_A128V] yielded a Screen [2, 7] of 0.004351 and a Screen [3, 8] of 0.5953.
ADDSFYTVRSA [ZAP70_Y493_A495V_YF] was tested, and the Screen [2, 7] was 1.093 and the Screen [1, 9] was -3.301.
With AEDKPYAELWT [MPI_Y46_M51T] the Screen [2, 10] was -0.4439 and the Screen [3, 8] was -0.5845.
AHARMYGVLPW [PLP1_Y207_D203H] was tested, and the Screen [2, 7] was -1.491 and the Screen [4, 11] was -2.408.
AKKMKYFEGVS [PRKDC_Y682_I680M] was tested, and the Screen [1, 6] was 0.9485.
ANAFIYDVQLP [L1CAM_Y420_V421D_YF] was tested, and the Screen [2, 10] was 2.894 and the Screen [5] was 1.352.
With CEAIEYLESKQ [BTK_Y511_M509I] the Screen [1, 6] was 1.454.
Sequence CENCHYPILPL [LCK_Y25_V28L] has a Screen [1, 6] of 0.2762.
CKSIHYDLVFL [COL22A1_Y37_V35I] showed a Screen [3, 8] of -0.07246.
For DFFDLYGGKKF [PTPN11_Y66_E69K_YF], the Screen [2, 7] was 0.3147.
Sequence DGQFVYKLTDF [TBK1_Y153_S151F] has a Screen [2, 7] of -0.3973.
Sequence DRLTVYIDRVR [LMNA_Y45_A43T] has a Screen [1, 6] of -0.2946.
Sequence DRQASYLDKVR [KRT17_Y98_L95Q] has a Screen [1, 6] of 2.325.
EAAFVYVISSA [WNT4_Y113_A114V] showed a Screen [2, 7] of -2.147 and a Screen [1, 9] of 1.673.
Sequence EACPSYSHVVL [CHST6_Y168_R166P] has a Screen [3, 8] of 2.885.
EGTATYAAAIL [JUP_Y644_V648I] showed a Screen [3, 8] of 0.5368 and a Screen [4, 11] of 0.4332.
FDNPIYQKTTE [LDLR_Y828_V827I] was tested, and the Screen [1, 6] was 2.749 and the Screen [3, 8] was 1.939.
Work on FEKFLYFLPAS [DYNC2H1_Y346_H341Y_YF] yielded a Screen [5] of -0.7762.
For FFLGAYDRFLP [SLC22A5_Y486_V481F_YF], the Screen [2, 7] was -0.1466, the Screen [1, 9] was -0.3891 and the Screen [4, 11] was -0.4331.
FGCGMYSHLQG [LGR4_Y848_D844G_YF] was tested, and the Screen [2, 10] was -0.3661 and the Screen [3, 8] was -1.105.
FIIFIYAMKKK [SLCO1B1_Y645_L643F_YF] was tested, and the Screen [2, 7] was 2.408.
With FISLIYTNFEV [GSTP1_Y109_A114V_YF] the Screen [2, 10] was 0.2277, the Screen [1, 6] was 1.388 and the Screen [3, 8] was 1.457.
In the case of FKGIVYSVSSD [DCX_Y70_A71S], the Screen [1, 6] is reported as -0.3809.
FLAVGYHMPHI [IDS_Y225_K227M] showed a Screen [1, 6] of -0.568.
In the case of FLENFYDLEKD [MMP3_Y42_K45E_YF], the Screen [2, 10] is reported as 0.2474.
With FSGQVYRQRRK [TH_Y230_D227G] the Screen [1, 9] was 0.751.
FSTPPYLLEAA [BRIP1_Y921_S919P_YF] was tested, and the Screen [2, 10] was -1.274.
In the case of GADAIYDHVNE [UQCR10_Y44_I47V], the Screen [2, 7] is reported as -0.3881, the Screen [3, 12] is reported as 0.2964 and the Screen [4, 13] is reported as 0.825.
GEEIKYMLWLL [OTC_Y55_S60L] was tested, and the Screen [3, 8] was 1.219.
For GESKDYALHAG [SVIL_Y185_V189A], the “Screen (variant relative to reference peptide, measured in the pTyr-Var library screen)” value [5] was -2.109.
For GESLTYVSTTF [C1orf162_Y120_A121V], the Screen [2, 10] was -2.006.
Sequence GGSDCYGSLRP [MYLK_Y846_R845C] has a Screen [2, 7] of 2.609.
GMKIVYVFVKK [DNAI2_Y5_E2K_YF] gave a Screen [1, 6] of 1.393.
For GQDLLYEDEDL [PACS1_Y303_F302L], the Screen [3, 8] was 0.4548.
Work on HFPDVYAWEQL [ALX3_Y181_R183W_YF] yielded a Screen [2, 10] of 2.591 and a Screen [3, 8] of 4.265.
HNQDDYSFPSR [LDLR_Y845_G844D_YF] showed a Screen [4, 11] of 1.141.
In the case of HVKHNYECLVF [XRCC5_Y416_I412V_YF], the “Screen (variant relative to reference peptide, measured in the pTyr-Var library screen)” value [5] is reported as -0.4743.
Work on IGMLIYFARKA [VCAM1_Y718_I716L] yielded a Screen [4, 13] of -1.317.
Work on IVRSLYEDVED [VHL_Y185_L188V] yielded a Screen [1, 9] of 2.296 and a Screen [3, 12] of 0.543.
KAWTIYHPEDS [ZBP1_Y165_R166H] showed a Screen [1, 9] of 3.304.
With KKFPDYIQSAM [SGMS2_Y59_I62S_YF] the “Screen (variant relative to reference peptide, measured in the pTyr-Var library screen)” value [5] was -3.574.
Work on KLSHLYQDHMQ [WNT5A_Y86_C83S] yielded a Screen [1, 9] of -1.969.
With KNKELYSDPFD [PDE10A_Y300_L303P] the Screen [3, 8] was -1.007.
For LADKPYTFEFF [FXN_Y118_D122Y_YF], the Screen [2, 10] was -0.4395, the Screen [3, 8] was -0.3661 and the Screen [4, 11] was -0.8967.
LDFPEYNGVDR [CASQ1_Y43_D44N] gave a Screen [2, 10] of 0.514.
LERFIYNRQEF [HLA-DPB1_Y59_E62Q_YF] gave a Screen [2, 10] of -1.248.
In the case of LESILYESSVV [TRPV4_Y91_T89I], the Screen [2, 7] is reported as -0.6958 and the Screen [3, 12] is reported as -0.3592.
Sequence LFLALYTGLVR [PIGB_Y402_H407R] has a Screen [2, 7] of -0.3512.
In the case of LGKLTYPVGFW [NTHL1_Y177_I176T], the Screen [4, 11] is reported as 0.6291.
Work on LIGRGYDDPEV [HSPA9_Y128_R127G] yielded a Screen [4, 11] of -1.099.
